The structures appear in SMILES notation.

These results are taken from patent US20210193322A1, “NETWORK METHODS FOR NEURODEGENERATIVE DISEASES” (Genting TauRx Diagnostic Centre SDN BHD, priority 2018, published 2021).

The subject of one test is bvFTD. Conditions: cited from earlier work.
Another test deals with AD diagnosed patients. Nature of the test: Structural correlation network analysis (MRI cortical thickness and surface area correlation matrices, node degree) in AD patients. In kind it is in vivo, human.

Take `CC12CC3CC(C)(C1)CC(N)(C3)C2` [memantine]: the “treatment benefit in bvFTD” value in the test on bvFTD is on record as “no treatment benefit”.
With `CN(C)c1ccc2c(c1)Sc1cc(N(C)C)ccc1N2` [LMTM, leuco-methylthioninium bis(hydromethanesulfonate)], the “number of inverse/compensatory non-homologous cortical thickness correlations compared with healthy elderly controls” value in the test on AD diagnosed patients (54 AD patients with CDR 0.5 only, baseline and week 65, LMTM 8 mg/day monotherapy, vs 202 healthy elderly, FIGS. 27A-27D) is “equivalent to the normal elderly controls”. Further, the “number of inverse/compensatory non-homologous surface area correlations compared with healthy elderly controls” value in the test on AD diagnosed patients (54 AD patients with CDR 0.5 only, baseline and week 65, LMTM 8 mg/day monotherapy, vs 202 healthy elderly, FIGS. 28A-28D) is given as “either equivalent to or lower than normal elderly controls”. For the same compound, in the test with AD diagnosed patients (96 AD patients (CDR 0.5, 1 or 2), baseline and week 65, LMTM 8 mg/day monotherapy, vs 202 healthy elderly, FIGS. 25A-25D), the “cortical thickness networks compared with healthy elderly controls” value is “brings the cortical thickness networks closer to normal”. Further, the “surface area networks compared with healthy elderly controls” value in the test with AD diagnosed patients (96 AD patients (CDR 0.5, 1 or 2), baseline and week 65, LMTM 8 mg/day monotherapy, vs 202 healthy elderly, FIGS. 26A-26D) is “normalizes surface area networks”. In addition, the “compensatory network correlations (especially non-homologous, positive and inverse correlations)” value in the test on AD diagnosed patients (summary statement) is “reduce compensatory network correlations”. In addition, the “cortical thickness correlations, within-lobe (positive) and between-lobe compensatory (inverse)” value in the test with AD diagnosed patients (week 65 vs baseline, LMTM 8 mg/day monotherapy, 96 AD patients, FIGS. 21A-21B) was “major reduction in thickness correlations”. Besides, in the test on AD diagnosed patients (week 65 vs baseline, LMTM 8 mg/day monotherapy, 96 AD patients, FIGS. 23A-23B), the “surface area correlations, within-lobe (positive) and between-lobe compensatory (inverse)” value is given as “significant reductions in surface area correlations”. Moreover, in the test on AD diagnosed patients (week 65 vs baseline, LMTM 8 mg/day with symptomatic AD treatments (ach1), 445 AD patients, FIGS. 19A-19B), the “effect on cortical thickness structural correlation networks (correlation matrix)” value was “minimal effect”. Besides, the “effect on non-homologous inter-lobar node degree (cortical thickness and surface area, positive and inverse correlations)” value in the test on AD diagnosed patients (week 65 vs week 0, LMTM 8 mg/day as add-on, ach1 group, FIGS. 20A-20D) is “minimal overall effect”. Besides, the “number of positive and inverse non-homologous cortical thickness correlations (inter-lobar node degree)” value in the test with AD diagnosed patients (week 65 vs week 0, LMTM 8 mg/day monotherapy, ach0 group, FIGS. 22A-22B) was “significant reduction”. For the same compound, in the test with AD diagnosed patients (week 65 vs week 0, LMTM 8 mg/day monotherapy, ach0 group, FIGS. 24A-24B), the “number of positive and inverse/compensatory surface area correlations (non-homologous inter-lobar node degree)” value is reported as “significant reduction”.
